Laboratory results: patent US20180085386A1, “URIDINE MONOPHOSPHATE AND TRIPHOSPHATE DERIVATIVES, COMPOSITIONS AND METHODS OF USE” (Tufts University, priority 2016, published 2018)

Legend:
PSAPP mice [1] = experiment: Plaque load in cortex and hippocampus by amyloid beta immunostaining; assay type: in vivo, mouse
Protocol: PSB0474 was systemically administered to PSAPP mice via intraperitoneal injection for 2, 4 and 6 consecutive days. In one group, prior to evaluation and following to administration for 6 consecutive days, treatment was suspended for two weeks (6+2 weeks group). Brains were then fixed and plaque load was evaluated by immunostaining with the amyloid beta specific antibodies: β1-40 and β1-42. Representative images of plaque load in cortex and hippocampus from animals that received injections of PSB0474 according to the foregoing injection schedules are shown in FIGS. 1(A)-(D). […] Whereas, when administration of PSB0474 was stopped for 2 weeks following six consecutive days of treatment (denoted as the 6+2 weeks group), β1-40 staining rebounded; although to a level lower than observed in mice treated with saline as a vehicle control. […] FIGS. 2C-2F depict data obtained following administration of different dosages of PSB0474.
To generate these graphs showing plaque load, mice were euthanized, brain sections cut and antibodies directed against Aβ42 were used to disclose Aβ plaques. Images were acquired digitally and an algorithm was applied to threshold the image so that plaques were isolated from the background. The algorithm then calculated the percent area of the field of view occupied by the plaques.
Brain samples were collected for Abeta analysis with immunostaining. Brains samples were collected after transcardial perfusion with phosphate buffer and 4% paraformaldehyde. Floating brain sections (40 micron) were collected using a microtome. Immunostaining for […] and Aβ42 were performed according to previously established protocol. Images with DAB staining were collected with brightfield microscopy and analyzed with ImageJ Macro. All data analysis and statistics were performed in GraphPad Prism 6.0.
(§1) In this study, treatment of PSAPP mice commenced when the mice were pre-symptomatic. Specifically, treatment was initiated when the mice were approximately 3 months old. PSAPP mice were treated for 100 days with daily, intraperitoneal injections of 10 μg/kg of compound 5 or vehicle. Following treatment, mice were assessed in a fear conditioning task for memory formation. Subsequently, plaque burden in the mice was also evaluated. The data provided in Examples 16 and 17 is for 19 vehicle treated mice and 22 compound treated mice. The data provided for the vehicle-treated group is the average across those mice, and error bars depict the standard error (SEM). Similarly, the data provided for the compound-treated group is the average across those mice, and the error bars depict the SEM.
as §1, with “assessed for the following: concentration of circulating pro-inflammatory cytokines; amyloid beta load (e.g., plaque burden); and memory” for “assessed”, “formation.” for “formation. Subsequently, plaque burden in the mice was also evaluated.”, “Example 18” for “Examples 16 and 17”, “18” for “19”, “20” for “22”, “SEM. Mice were first evaluated in the fear conditioning task experiment. Subsequently, plasma was taken for multiplex cytokine analysis of circulating levels of cytokine in the plasma. Finally, plaque burden was assessed in the cortex and hippocampus of the mice.” for “SEM.”
In this study, treatment of PSAPP mice commenced after the mice were already symptomatic. Specifically, treatment was initiated when the mice were approximately 6 months old. […]

PSAPP mice [2] = experiment: Contextual fear conditioning test (freezing); assay type: in vivo, mouse; conditions: vs vehicle
Protocol: In this study, the diphosphate derivative of compound 5 was injected intraperitoneally into 6 to 7-month-old PSAPP and WT mice daily at two different doses, i.e., 1 μg/kg or 1 mg/kg of the diphosphate derivative of compound 5 (in 1% DMSO/PBS) for 7 consecutive days. Consistent with the results observed following acute UDP or PSB0474 treatment, treatment with the diphosphate derivative of compound 5 increased total freezing percentage in the context test in PSAPP mice (FIG. 4). […] FIG. 4 depicts the results of experiments using the contextual fear conditioning test with PSAPP mice treated with vehicle control (black bar at center of graph). […]
In this study, treatment of PSAPP mice commenced when the mice were pre-symptomatic. […] Following treatment, mice were assessed in a fear conditioning task for memory formation. Subsequently, plaque burden in the mice was also evaluated. […]
Treatment with compound 5 prevented impairments in contextual fear memory. […] Memory is assessed by the percent time that mice “freeze” 24 hours after a fear inducing electric shock. […]
In this study, treatment of PSAPP mice commenced when the mice were pre-symptomatic. […] Following treatment, mice were assessed for the following: concentration of circulating pro-inflammatory cytokines; amyloid beta load (e.g., plaque burden); and memory in a fear conditioning task for memory formation. […]

THP-1 cells = experiment: Cytokine release from human THP-1 cells (multiplex analysis of culture medium); assay type: cell-based; conditions: FIG. 19
Protocol: THP-1 cells, a human cell line derived from monocytes, were treated in vitro with vehicle, the P2Y6 receptor antagonist MRS 2578, or compound 5, singly or in combination. THP-1 cells were seeded in 24 well plates at a density of 4×10^5 cells/well in culture medium for 24 hours. Thereafter, vehicle, compound 5, or MRS 2578 (singly or in combination) were added to the cultures for 24 hours. Subsequently the culture medium was aspirated and subjected to multiplex cytokine analysis. Data are presented as means+/−sem. MRS 2578 has a molecular weight of about 472 and is also described using CAS number 711019-86-2.

[3] = Cmax after effective dose of compound 5; conditions: mouse, in vivo, 10 ug/kg; effective dose of 10 μg/kg
PSAPP mice [4] = experiment: Plaque load in cortex and hippocampus by amyloid beta immunostaining; assay type: in vivo, mouse; conditions: 10 μg/kg i.p. once per day for 7 days; PS1/APP mice 26 weeks; cortex; FIG. 6B

## O=c1ccn([C@@H]2O[C@H](CO)C(O)C2O)c(=O)n1Cc1noc2ccccc12 (stereo in doubt) [compound 5]
PSAPP mice [1]; 10 μg/kg i.p. daily for 7 days from ~6 months, Example 20, FIG. 17(B)
  plaque size: decrease
PSAPP mice [1]; 10 μg/kg i.p. daily for 7 days from ~6 months, using Aβ40, Example 20, FIG. 17(A) upper panel
  Amyloid beta accumulation in the cortex: decreased
PSAPP mice [1]; 10 μg/kg i.p. daily for 7 days from ~6 months, using Aβ42, Example 20, FIG. 17(A) lower panel
  Amyloid beta accumulation in the hippocampus: decreased
PSAPP mice [1]; 10 μg/kg i.p. daily for 100 days from ~3 months of age, vs vehicle, Example 17, FIG. 9
  plaque burden: reduced
PSAPP mice [1]; 10 μg/kg i.p. daily for 100 days from ~3 months, vs vehicle, Example 19, FIG. 15(A)
  Amyloid beta accumulation in the cortex: decreased
PSAPP mice [1]; 10 μg/kg i.p. daily for 100 days from ~3 months, vs vehicle, Example 19, FIG. 15(B)
  Amyloid beta accumulation in the hippocampus: decreased
PSAPP mice [1]; 10 μg/kg i.p. once per day for 7 days, PS1/APP mice 26 weeks
  size distribution of remaining plaques: significantly reduced
PSAPP mice [1]; 10 μg/kg i.p. once per day for 7 days, PS1/APP mice 26 weeks, cortex, FIG. 6A
  Aβ40 plaque burden: significantly reduced
PSAPP mice [2]; 10 μg/kg i.p. daily for 100 days from ~3 months of age, Example 17, FIG. 8
  freezing time in contextual fear memory test: statistically significant increase
PSAPP mice [2]; 10 μg/kg i.p. daily for 100 days from ~3 months, Example 19, FIG. 15(C)
  freezing time in contextual fear memory test: statistically significant increase
THP-1 cells; co-treatment with MRS 2578
  effect of compound 5 on release of IL-7: abrogated
THP-1 cells; compound 5 10 nM, 24 hours, vs vehicle
  release of IL-7 into culture media: decreased
[3]
  Cmax: 13 nM
PSAPP mice [4]
  Aβ42 plaque burden: significantly reduced
